Series [1] has as its system epimastigote form of Y strain T. cruzi. In words: Anti-epimastigote effect (direct count of live epimastigotes after 7 days). It counts as cell-based, Trypanosoma cruzi. As to conditions: mean of triplicate. How it is done: (§1) Trypanosoma cruzi (Y strain) was obtained from the Fundação Oswaldo Cruz (Rio de Janeiro, Brazil) culture collection, and maintained in the Laboratory of Glycobiology (UFRJ, Rio de Janeiro, Brazil) facilities. Epimastigote forms were maintained by weekly transfers at 28 °C in brain-heart-infusion (BHI) medium (Acumedia, Lansing, MI, USA), supplemented with 10 mg of hemin (Sigma, St. Louis, MO, USA), 20 mg of folic acid L^−1 (Sigma) and 10% heat-inactivated fetal calf serum (FCS) (BHI-FCS medium, Gibco, Grand Island, NY, USA). Tissue culture-derived trypomastigotes were obtained after infection of confluent monolayers of Vero cells (kidney epithelial cells extracted from African green monkeys) with blood trypomastigotes (Y strain) to establish the intracellular cycle and maintained in RPMI 1640 medium containing 10% FCS under an atmosphere of 5% CO2 at 37 °C. The tissue culture-derived trypomastigotes were used to infect Mø in vitro to evaluate the toxic effects of the drugs.
For evaluation of the anti-epimastigote effects, parasites (1 × 10^5 cells per mL) were subcultured in the absence or presence of different concentrations (0.5 to 25 μg.mL^−1) of the drugs 9a–9m, from a 5 mg mL^−1 stock solution in DMSO (Sigma). The parasites were incubated in BHI-FCS medium with or without drugs in a final volume of 1.0 mL in 24-well plates (TPP, Trasadingen, Switzerland), and after 7 days, the toxic effects of the drugs were quantified by the direct count of the live epimastigotes in a Neubauer chamber.
(§2) The 50% inhibitory concentrations (IC50) values shown in the Table 1 represent the mean of experiments carried out in triplicate. The IC50 of all compounds were determined by linear regression analysis using the program IGOR Pro 2.03 (WaveMetrics, Inc, Lake Oswego, OR, USA).

Series [2] concerns amastigotes of T. cruzi. Nature of the series: Anti-amastigote effect in infected peritoneal macrophages. Type of series: cell-based. As to conditions: Trypanosoma cruzi, Peritoneal macrophage, in Mus musculus; T. cruzi Y strain, intracellular amastigotes in BALB/c peritoneal Mø, 0.5-5.0 µg mL−1; ≥ = maximum concentration allowed by trypan blue exclusion assay. On the procedure:
as §1
Resident peritoneal Mø from non-infected BALB/c mice were harvested and cultured as described above. Adhered Mø were infected with T. cruzi trypomastigotes at a 10:1 parasite/macrophage ratio and incubated at 37 °C under 5% CO2 for 1 h. […] After, monolayers were washed with PBS at 37 °C, fixed in methanol, and stained with Giemsa (Sigma). The amastigote survival was determined by the counting of 200 cells in triplicate, the percentage of infected cells was analyzed, as well as the number of amastigotes per macrophage and the endocytic index of the infected cells.
as §2

Series [3] deals with peritoneal macrophages (Mø) from Balb/c mice. Nature of the series: Cytotoxicity to macrophages (trypan blue dye exclusion assay). Type of series: cell-based. As to conditions: murine macrophages, 0.5-5 μg mL−1, 72 h. On the procedure: The evaluation of the toxic effects of the compounds was carried out as previously described. Murine peritoneal Mø were seeded (1 × 10^6 cells per well) in 24-well plates with 1 mL of RPMI medium containing 10% FCS. […] The five drugs were assayed in increasing concentrations (0.5, 1.0, 2.5, 5.0 µg mL^−1). Afterwards, the cells were washed with PBS, and RPMI was added to the culture before the addition of vital dye trypan blue in a final concentration of 0.01%. The toxic effects of the drugs were monitored by the count of 200 cells in a Neubauer chamber where plasma membrane permeability was evaluated.

Experimental findings from publication PMC6270562, “Design, Synthesis and Trypanocidal Evaluation of Novel 1,2,4-Triazoles-3-thiones Derived from Natural Piperine” (Molecules, 2013) are described below.

A value given as a limit tells only on which side of the number the result lay.

What is called IC50 is the concentration that inhibits the measured activity by half. Read a low IC50 as greater potency. A word on the melting point: it is the temperature of the solid-liquid transition. `CCn1c(/C=C/C=C/c2ccc3c(c2)OCO3)n[nH]c1=S` [9b, 5-[(1E,3E)-4-(1,3-Benzodioxol-5-yl)buta-1,3-dien-1-yl]-4-ethyl-2,4-dihydro-3H-1,2,4-triazole-3-thione] had a melting point of 208 to 209 °C. Further, half-maximal inhibition in series [1] (Trypanosoma cruzi, 168 h) (IC50) was put at 50.2 ± 10.8 µM.
In turn, `CCCCn1c(/C=C/C=C/c2ccc3c(c2)OCO3)n[nH]c1=S` [9d, 5-[(1E,3E)-4-(1,3-Benzodioxol-5-yl)buta-1,3-dien-1-yl]-4-butyl-2,4-dihydro-3H-1,2,4-triazole-3-thione] returned a melting point of 173 to 174 °C. For the same compound, the IC50 in series [2] is at least 15.2 µM.
In the case of `S=c1[nH]nc(/C=C/C=C/c2ccc3c(c2)OCO3)n1-c1ccccc1` [9g, 5-[(1E,3E)-4-(1,3-Benzodioxol-5-yl)buta-1,3-dien-1-yl]-4-phenyl-2,4-dihydro-3H-1,2,4-triazole-3-thione], the melting point fell in the range of 244 to 245 °C. This compound showed an IC50 in series [1] (Trypanosoma cruzi, 168 h) of 39 ± 8.88 µM.
In the case of `O=C(Cn1ccnc1[N+](=O)[O-])NCc1ccccc1` [Benznidazole, benznidazole, reference compound], the IC50 in series [1] (Trypanosoma cruzi, 168 h) was found to be 2.2 ± 0.16 µM; in series [2], 2.5 ± 0.21 µM.
Compound `S=c1[nH]nc(/C=C/C=C/c2ccc3c(c2)OCO3)n1Cc1ccccc1` [9h, 5-[(1E,3E)-4-(1,3-Benzodioxol-5-yl)buta-1,3-dien-1-yl]-4-benzyl-2,4-dihydro-3H-1,2,4-triazole-3-thione] displayed a melting point of 187 to 188 °C. Further, the IC50 in series [1] (Trypanosoma cruzi, 168 h) amounted to 39.4 ± 6.88 µM.
As for `CCCCCCn1c(/C=C/C=C/c2ccc3c(c2)OCO3)n[nH]c1=S` [9e, 5-[(1E,3E)-4-(1,3-Benzodioxol-5-yl)buta-1,3-dien-1-yl]-4-hexyl-2,4-dihydro-3H-1,2,4-triazole-3-thione], the melting point was 124 to 125 °C. The IC50 in series [1] (Trypanosoma cruzi, 168 h) was below 30 µM. The IC50 in series [1] came to 15.4 ± 4.47 µM. In series [2], this compound yielded a 50% inhibitory concentration (IC50) of at least 14 µM.
Taken in the same sequence, the figures for `CC(C)n1c(/C=C/C=C/c2ccc3c(c2)OCO3)n[nH]c1=S` [9c, 5-[(1E,3E)-4-(1,3-Benzodioxol-5-yl)buta-1,3-dien-1-yl]-4-isopropyl-2,4-dihydro-3H-1,2,4-triazole-3-thione] were 210 to 211 °C, below 30 µM, 27 ± 6.98 µM and 11.1 ± 1.26 µM.
Taken in the same sequence, the figures for `FC(F)(F)c1ccc(-n2c(/C=C/C=C/c3ccc4c(c3)OCO4)n[nH]c2=S)cc1` [9m, 5-[(1E,3E)-4-(1,3-Benzodioxol-5-yl)buta-1,3-dien-1-yl]-4-[4-(trifluoromethyl)phenyl]-2,4-dihydro-3H-1,2,4-triazole-3-thione] were 232 to 233 °C, below 30 µM, 18.5 ± 3.95 µM and 9.59 ± 2.87 µM.
In turn, `CC(C)(C)n1c(/C=C/C=C/c2ccc3c(c2)OCO3)n[nH]c1=S` [9j, 5-[(1E,3E)-4-(1,3-Benzodioxol-5-yl)buta-1,3-dien-1-yl]-4-tert-butyl-2,4-dihydro-3H-1,2,4-triazole-3-thione] gave a melting point of 183 to 184 °C. For the same compound, in series [1] (Trypanosoma cruzi, 168 h), the IC50 amounted to 50.8 ± 10.6 µM.
Taken in the same sequence, the figures for `COc1cc(-n2c(/C=C/C=C/c3ccc4c(c3)OCO4)n[nH]c2=S)cc(OC)c1OC` [9i, 5-[(1E,3E)-4-(1,3-Benzodioxol-5-yl)buta-1,3-dien-1-yl]-4-(3,4,5-trimethoxyphenyl)-2,4-dihydro-3H-1,2,4-triazole-3-thione] were 242 to 243 °C and 35.3 ± 6.26 µM.
In turn, `S=c1[nH]nc(/C=C/C=C/c2ccc3c(c2)OCO3)n1C1CCCCC1` [9f, 5-[(1E,3E)-4-(1,3-Benzodioxol-5-yl)buta-1,3-dien-1-yl]-4-cyclohexyl-2,4-dihydro-3H-1,2,4-triazole-3-thione] yielded a melting point of 192 to 194 °C. The same compound registered an IC50 in series [1] (Trypanosoma cruzi, 168 h) below 30 µM. For the same compound, the half-maximal inhibitory concentration (IC50) in series [1] was found to be 18.3 ± 5.21 µM. In series [3], the “toxicity on host cells” value is “low toxic effects”. In series [2], this compound gave an IC50 of 8.87 ± 2.39 µM.
`Cn1c(/C=C/C=C/c2ccc3c(c2)OCO3)n[nH]c1=S` [9a, 5-[(1E,3E)-4-(1,3-Benzodioxol-5-yl)buta-1,3-dien-1-yl]-4-methyl-2,4-dihydro-3H-1,2,-triazole-3-thione] showed a melting point of 220 to 222 °C. The concentration for half-maximal inhibition (IC50) in series [1] (Trypanosoma cruzi, 168 h) was found to be 44.2 ± 7.3 µM.
Taken in the same sequence, the figures for `CSc1ccc(-n2c(/C=C/C=C/c3ccc4c(c3)OCO4)n[nH]c2=S)cc1` [9k, 5-[(1E,3E)-4-(1,3-Benzodioxol-5-yl)buta-1,3-dien-1-yl]-4-[4-(methylthio)phenyl]-2,4-dihydro-3H-1,2,4-triazole-3-thione] were 209 to 211 °C and 40.8 ± 10.5 µM.
Taken in the same sequence, the figures for `COc1cccc(-n2c(/C=C/C=C/c3ccc4c(c3)OCO4)n[nH]c2=S)c1` [9l, 5-[(1E,3E)-4-(1,3-Benzodioxol-5-yl)buta-1,3-dien-1-yl]-4-(3-methoxyphenyl)-2,4-dihydro-3H-1,2,4-triazole-3-thione] were 248 to 249 °C and 48 ± 6.06 µM.
